According to patent publication US11773078B2, “Furin inhibitors” (Glaxosmithkline Intellectual Property Development Limited, priority 2018, dated 2023):

What was measured:
[1] = biological target: T1, Furin (108-574-Tev-Flag-His) enzyme (Homo sapiens, UniProt P09958); assay: Furin enzyme assay; format: biochemical; settings: for IC50: read-out: furin enzyme pIC50 (converted)
T1 construct: Furin (108-574-Tev-Flag-His) enzyme was expressed and purified from CHO cells; TEV cleavage site (C); FLAG (C); His (C); made in house; host or cells: CHO cells
In short: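 CHO-expressed, purified furin construct at 40 pM in 100 mM HEPES pH7.5, 1 mM CaCl2, 0.005% Triton X-100. Eleven-point 1:3 series, 0.00017–10 μM final, incubated 2 h at room temperature and read on Envision. pXC50 from four-parameter fit.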

[2] = biological target: T2, furin (endogenous protease) in U20S cells (Homo sapiens, UniProt P09958); assay: Furin cell-based assay (image-based, Golgi-targeted GFP with BMP10 furin/PCSK cleavage site); settings: 24-hour incubation, read-out: furin golgi cell pXC50 (converted);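 further: Read-out is mean GFP fluorescence of Golgi puncta per cell by high-content imaging, retained when furin inhibited, over an eleven-point 0.00017–10 µM series, four-parameter fit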
T2 construct: the endogenous protease cleaves GFP; endogenous in cells; host or cells: U2OS cells transduced with a BacMam reporter
T2 sequence (P09958 108-794): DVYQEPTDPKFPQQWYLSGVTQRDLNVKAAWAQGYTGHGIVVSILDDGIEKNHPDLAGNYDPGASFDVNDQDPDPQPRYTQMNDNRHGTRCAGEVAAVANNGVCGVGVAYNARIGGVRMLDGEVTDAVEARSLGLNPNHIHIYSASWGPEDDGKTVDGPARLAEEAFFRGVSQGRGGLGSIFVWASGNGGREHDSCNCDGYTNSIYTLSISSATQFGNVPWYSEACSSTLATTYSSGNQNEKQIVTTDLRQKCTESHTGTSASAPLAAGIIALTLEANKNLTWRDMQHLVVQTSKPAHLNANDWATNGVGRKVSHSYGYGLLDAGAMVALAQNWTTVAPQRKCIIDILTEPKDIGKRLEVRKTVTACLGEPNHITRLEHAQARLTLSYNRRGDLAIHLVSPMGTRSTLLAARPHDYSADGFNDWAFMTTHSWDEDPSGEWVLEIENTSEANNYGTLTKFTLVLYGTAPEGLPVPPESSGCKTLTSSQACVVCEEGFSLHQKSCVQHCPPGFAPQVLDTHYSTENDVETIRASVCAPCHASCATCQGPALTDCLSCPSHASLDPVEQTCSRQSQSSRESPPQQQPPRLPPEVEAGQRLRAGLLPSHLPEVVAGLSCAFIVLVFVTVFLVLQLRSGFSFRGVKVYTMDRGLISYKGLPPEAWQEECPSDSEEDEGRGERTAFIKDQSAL

T1 sequence (P09958 108-574): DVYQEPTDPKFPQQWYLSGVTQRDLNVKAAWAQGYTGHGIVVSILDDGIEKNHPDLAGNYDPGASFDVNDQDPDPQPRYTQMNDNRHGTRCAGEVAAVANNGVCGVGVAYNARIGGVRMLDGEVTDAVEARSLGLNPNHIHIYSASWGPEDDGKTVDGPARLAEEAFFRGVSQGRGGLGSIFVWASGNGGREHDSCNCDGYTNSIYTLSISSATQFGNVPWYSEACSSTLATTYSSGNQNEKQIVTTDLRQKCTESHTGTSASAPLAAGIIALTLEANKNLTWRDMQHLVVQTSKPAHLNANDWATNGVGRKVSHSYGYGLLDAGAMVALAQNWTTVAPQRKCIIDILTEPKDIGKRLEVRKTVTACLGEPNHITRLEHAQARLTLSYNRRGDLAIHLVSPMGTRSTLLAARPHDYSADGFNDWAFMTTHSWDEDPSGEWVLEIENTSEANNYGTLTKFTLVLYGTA

| SMILES | furin enzyme pIC50 [1] | EC50 [2] [µM] | IC50 [1] [µM] |
| --- | --- | --- | --- |
| CN1CCCN(c2ncc(Oc3cc(CN4CCC(OCC(=O)O)CC4)cc(-c4cc(Cl)cc(Cl)c4)n3)cn2)CC1 [Example 140, 2-((1-((2-(3,5-dichlorophenyl)-6-((2-(4-methyl-1,4-diazepan-1-yl)pyrimidin-5-yl)oxy)pyridin-4-yl)methyl)piperidin-4-yl)oxy)acetic acid] | 8.8 | 0.00794 | – |
| CN1CCN(c2ccc(Oc3cc(CN4CCC5(CC4)CNC(=O)OC5)cc(-c4cc(Cl)cc(Cl)c4)n3)cn2)CC1 [Example 141, 9-((2-(3,5-dichlorophenyl)-6-((6-(4-methylpiperazin-1-yl)pyridin-3-yl)oxy)pyridin-4-yl)methyl)-2-oxa-4,9-diazaspiro[5.5]undecan-3-one] | 8.6 | 0.00501 | – |
| CN1CCN(c2ncc(Oc3cc(CN4CCC(CC(N)=O)CC4)cc(-c4cc(Cl)cc(Cl)c4)n3)cn2)CC1 [Example 142, 2-(1-((2-(3,5-dichlorophenyl)-6-((2-(4-methylpiperazin-1-yl)pyrimidin-5-yl)oxy)pyridin-4-yl)methyl)piperidin-4-yl)acetamide] | 8.8 | 0.00631 | – |
| CN1CCN(c2ncc(Oc3cc(CN4CCC(OC5(C(=O)O)CC5)CC4)cc(-c4cc(Cl)cc(Cl)c4)n3)cn2)CC1 [Example 143, 1-((1-((2-(3,5-dichlorophenyl)-6-((2-(4-methylpiperazin-1-yl)pyrimidin-5-yl)oxy)pyridin-4-yl)methyl)piperidin-4-yl)oxy)cyclopropanecarboxylic acid] | 8.4 | 0.02 | – |
| COC1CN(C)CCN(c2ncc(Oc3cc(CN4CCC(CC(=O)O)CC4)cc(-c4cc(Cl)cc(Cl)c4)n3)cn2)C1 (stereo not drawn) [Example 144, 2-(1-((2-(3,5-dichlorophenyl)-6-((2-(6-methoxy-4-methyl-1,4-diazepan-1-yl)pyrimidin-5-yl)oxy)pyridin-4-yl)methyl)piperidin-4-yl)acetic acid] | 8.5 | 0.00794 | – |
| CC(=O)NCC1CCN(Cc2cc(Oc3ccc(N4CCN(C)CC(F)C4)nc3)nc(-c3cc(Cl)cc(Cl)c3)c2)CC1 (stereo not drawn) [Example 145, N-((1-((2-(3,5-dichlorophenyl)-6-((6-(6-fluoro-4-methyl-1,4-diazepan-1-yl)pyridin-3-yl)oxy)pyridin-4-yl)methyl)piperidin-4-yl)methyl)acetamide] | 8.9 | 0.002 | – |
| CN1CCN(c2ncc(Oc3cc(CN4CCC(CC(=O)O)CC4)cc(-c4cc(Cl)cc(Cl)c4)n3)cn2)CC(C)(O)C1 (stereo not drawn) [Example 146, 2-(1-((2-(3,5-dichlorophenyl)-6-((2-(6-hydroxy-4,6-dimethyl-1,4-diazepan-1-yl)pyrimidin-5-yl)oxy)pyridin-4-yl)methyl)piperidin-4-yl)acetic acid] | 8.5 | 0.0158 | – |
| CN1CCN(c2ncc(Oc3cc(CN4CCC(CC(=O)O)CC4)cc(-c4cc(Cl)cc(Cl)c4)n3)cn2)CC(F)C1 (stereo not drawn) [Example 147, 2-(1-((2-(3,5-dichlorophenyl)-6-((2-(6-fluoro-4-methyl-1,4-diazepan-1-yl)pyrimidin-5-yl)oxy)pyridin-4-yl)methyl)piperidin-4-yl)acetic acid] | – | 0.0316 | 0.000631 |
| Cc1nc(N2CCN(C)CC2)ncc1Oc1cc(CN2CCC(CC(=O)O)CC2)cc(-c2cc(Cl)cc(Cl)c2)n1 [Example 148, 2-(1-((2-(3,5-dichlorophenyl)-6-((4-methyl-2-(4-methylpiperazin-1-yl)pyrimidin-5-yl)oxy)pyridin-4-yl)methyl)piperidin-4-yl)acetic acid] | 8.3 | 0.0631 | – |
| Cc1nc(N2CCN(C)CC2)ccc1Oc1cc(CN2CCC(CC(=O)O)CC2)cc(-c2cc(Cl)cc(Cl)c2)n1 [Example 149, 2-(1-((2-(3,5-dichlorophenyl)-6-((2-methyl-6-(4-methylpiperazin-1-yl)pyridin-3-yl)oxy)pyridin-4-yl)methyl)piperidin-4-yl)acetic acid] | 8.3 | 0.0794 | – |
| CN1CCN(c2ccc(Oc3cc(CN4CCC(CC(=O)O)CC4)cc(-c4cc(Cl)cc(Cl)c4)n3)cc2)CC1 [Example 150, 2-(1-((2-(3,5-dichlorophenyl)-6-(4-(4-methylpiperazin-1-yl)phenoxy)pyridin-4-yl)methyl)piperidin-4-yl)acetic acid] | 8.2 | 0.0631 | – |
| CN1CCN(c2ncc(Oc3cc(CN4CCC(CC(=O)O)CC4)cc(-c4cc(Cl)cc(Cl)c4)n3)cc2F)CC1 [Example 151, 2-(1-((2-(3,5-dichlorophenyl)-6-((5-fluoro-6-(4-methylpiperazin-1-yl)pyridin-3-yl)oxy)pyridin-4-yl)methyl)piperidin-4-yl)acetic acid] | 8.2 | 0.1 | – |
| CN1CCN(c2ncc(Oc3cc(CN4CCO[C@H](CCO)CC4)cc(-c4cc(Cl)cc(Cl)c4)n3)cn2)CC1 [Example 153, (S)-2-(4-((2-(3,5-dichlorophenyl)-6-((2-(4-methylpiperazin-1-yl)pyrimidin-5-yl)oxy)pyridin-4-yl)methyl)-1,4-oxazepan-7-yl)ethanol] | 7.9 | 0.0158 | – |
| CC(=O)N[C@@H]1[C@@H]2CN(Cc3cc(Oc4cnc(N5CCCN(C)CC5)nc4)nc(-c4cc(Cl)cc(Cl)c4)c3)C[C@@H]21 [Example 154, N-((1R,5S,6r)-3-((2-(3,5-dichlorophenyl)-6-((2-(4-methyl-1,4-diazepan-1-yl)pyrimidin-5-yl)oxy)pyridin-4-yl)methyl)-3-azabicyclo[3.1.0]hexan-6-yl)acetamide] | 7.8 | 0.0501 | – |
| CC(=O)CC1CCN(Cc2cc(Oc3cnc(N4CCN(C)CC4)nc3)nc(-c3cc(Cl)cc(Cl)c3)c2)CC1 [Example 155, 1-(1-((2-(3,5-dichlorophenyl)-6-((2-(4-methylpiperazin-1-yl)pyrimidin-5-yl)oxy)pyridin-4-yl)methyl)piperidin-4-yl)propan-2-one] | 8.1 | 0.0158 | – |
| CN1CCCN(c2ccc(Oc3cc(CN4CCC(CC(=O)O)CC4)cc(-c4cc(Cl)cc(Cl)c4)n3)cn2)CC1 [Example 156, 2-(1-((2-(3,5-Dichlorophenyl)-6-((6-(4-methyl-1,4-diazepan-1-yl)pyridin-3-yl)oxy)pyridin-4-yl)methyl)piperidin-4-yl)acetic acid] | 8.8 | 0.0158 | – |
| CC(=O)NCC1CCN(Cc2cc(Oc3ccc(N4CCN(C)CC4)nn3)nc(-c3cc(Cl)cc(Cl)c3)c2)CC1 [Example 157, N-((1-((2-(3,5-dichlorophenyl)-6-((6-(4-methylpiperazin-1-yl)pyridazin-3-yl)oxy)pyridin-4-yl)methyl)piperidin-4-yl)methyl)acetamide] | 10.8 | 0.00126 | – |
| NC1CCN(c2ncc(Oc3cc(CN4CCC(CC(=O)O)CC4)cc(-c4cc(Cl)cc(Cl)c4)n3)cn2)CC1 [Example 158, 2-(1-((2-((2-(4-Aminopiperidin-1-yl)pyrimidin-5-yl)oxy)-6-(3,5-dichlorophenyl)pyridin-4-yl)methyl)piperidin-4-yl)acetic acid] | 8.8 | 0.0794 | – |
| C[C@H]1CN(c2ncc(Oc3cc(CN4CCC(CC(=O)O)CC4)cc(-c4cc(Cl)cc(Cl)c4)n3)cn2)CCN1 [Example 159, (S)-2-(1-((2-(3,5-Dichlorophenyl)-6-((2-(3-methylpiperazin-1-yl)pyrimidin-5-yl)oxy)pyridin-4-yl)methyl)piperidin-4-yl)acetic acid] | 8.5 | 0.0251 | – |
| CC1(C)CN(c2ncc(Oc3cc(CN4CCC(CC(=O)O)CC4)cc(-c4cc(Cl)cc(Cl)c4)n3)cn2)CCN1 [Example 160, 2-(1-((2-(3,5-dichlorophenyl)-6-((2-(3,3-dimethylpiperazin-1-yl)pyrimidin-5-yl)oxy)pyridin-4-yl)methyl)piperidin-4-yl)acetic acid] | 8.8 | 0.0251 | – |
| O=C(O)CC1CCN(Cc2cc(Oc3cnc(N4CC5CNCC5C4)nc3)nc(-c3cc(Cl)cc(Cl)c3)c2)CC1 (stereo not drawn) [Example 161, 2-(1-((2-(3,5-dichlorophenyl)-6-((2-(hexahydropyrrolo[3,4-c]pyrrol-2(1H)-yl)pyrimidin-5-yl)oxy)pyridin-4-yl)methyl)piperidin-4-yl)acetic acid] | 8.3 | 0.0398 | – |
| O=C(O)CC1CCN(Cc2cc(Oc3cnc(N4CC5CC(C4)N5)nc3)nc(-c3cc(Cl)cc(Cl)c3)c2)CC1 [Example 162, 2-(1-((2-((2-(3,6-diazabicyclo[3.1.1]heptan-3-yl)pyrimidin-5-yl)oxy)-6-(3,5-dichlorophenyl)pyridin-4-yl)methyl)piperidin-4-yl)acetic acid] | 8.4 | 0.0794 | – |
| O=C(O)CC1CCN(Cc2cc(Oc3cnc(N4CC5CCC(C4)N5)nc3)nc(-c3cc(Cl)cc(Cl)c3)c2)CC1 [Example 163, 2-(1-((2-((2-(3,8-diazabicyclo[3.2.1]octan-3-yl)pyrimidin-5-yl)oxy)-6-(3,5-dichlorophenyl)pyridin-4-yl)methyl)piperidin-4-yl)acetic acid] | 8.7 | 0.01 | – |
| O=C(O)CC1CCN(Cc2cc(Oc3cnc(N4CCNC5(CC5)C4)nc3)nc(-c3cc(Cl)cc(Cl)c3)c2)CC1 [Example 164, 2-(1-((2-((2-(4,7-diazaspiro[2.5]octan-7-yl)pyrimidin-5-yl)oxy)-6-(3,5-dichlorophenyl)pyridin-4-yl)methyl)piperidin-4-yl)acetic acid] | – | 0.0251 | 0.00398 |
